Data set [1] in a line: local tolerability after repeated subcutaneous application. The data set is classed as in vivo. The settings on record: Mäuse, subkutan, 5 Tage 2 x pro Tag, 1 bis 10 % Lösungen, 100 mg/kg bis 300 mg/kg. The protocol: (§1) Die erfindungsgemäßen Verbindungen zeigen eine ausgezeichnete lokale Verträglichkeit, z. B, nach subkutaner Applikation, im Gegensatz zu den freien Carbonsäuren. Dazu wurden Mäuse über 5 Tage 2 x pro Tag mit 1 bis 10 % Lösungen der Wirkstoffe subkutan behandelt, entsprechend einer Dosis von 100 mg/kg bis 300 mg/kg. Während der Behandlungsperiode sowie nach Absetzen der Behandlung wurden die Tiere beobachtet. Es zeigte sich, daß die Mäuse, die mit den erfindungsgemäßen Verbindungen, z. […] Somit sind die erfindungsgemäßen Verbindungen lokal deutlich besser verträglich als die entsprechenden freien Carbonsäuren und es können Lösungen im oben genannten Konzentrationsbereich bei guter lokaler Verträglichkeit mehrfach angewendet werden. In einem Mäuseprotektionsversuch (Infektion intraperitoneal, Therapie 30 Minuten nach Infektion durch subkutane Gabe) konnte gezeigt werden, daß die Substanzen nach parenteraler Applikation eine gute protektive Wirkung bei erhöhter lokaler Verträglichkeit des Esters besitzen. Die erfindungsgemäßen Verbindungen sind damit in gleicher Dosis protektiv wirksam wie die deutlich schlechter verträglichen freien Carbonsäuren.

The nature of data set [2]: mouse protection test (intraperitoneal infection, subcutaneous therapy 30 minutes after infection). The data set is classed as in vivo, Mäuse. The settings on record: sc, Infektion intraperitoneal, Therapie 30 Minuten nach Infektion. As to the method: as §1

The text below walks through data of patent publication EP0205029A2, “Quinolinecarboxylic acids with an antibacterial activity” (BAYER AG, priority 1985, dated 1986).

Consider `CCOC(=O)c1cn(C2CC2)c2cc(N3CCN(CC)CC3)c(F)cc2c1=O` [Beispiel 1, 1-Cyclopropyl-6-fluor-7-(4-ethyl-1-piperazinyl)-1,4-dihydro-4-oxo-chinolin-3-carbonsäureethylester], for which, in data set [1], the “lokale Verträglichkeit (Merkmale einer lokalen Gewebeschädigung im Bereich der Injektionsstelle)” value is given as “keine Merkmale einer lokalen Gewebeschädigung”.
In turn, `CCN1CCN(c2cc3c(cc2F)c(=O)c(C(=O)O)cn3C2CC2)CC1` [Substanz A] returned an ED (80-100) in data set [2] of 2.5 mg/kg.
Still for that read-out and setting: the result for `CCOC(=O)c1cn(C2CC2)c2cc(N3CCN(CC)CC3)c(F)cc2c1=O` [Substanz B] reads 2.5 mg/kg.
